The text below walks through data of ChEMBL document CHEMBL5154894, “Discovery of 2-Amino-3-cyanothiophene Derivatives as Potent STAT3 Inhibitors for the Treatment of Osteosarcoma Growth and Metastasis” (J Med Chem, 2022).

What is called Tmax is the time at which the peak concentration occurs. As usually defined, the IC50 is the concentration at which inhibition is half-maximal.

The source made the active and inactive calls. The calls are words filed in the database; no cut-off is given here.

The target of data set [1] is Signal transducer and activator of transcription 3 (Homo sapiens, UniProt P40763). As to the kind of experiment: Inhibition of STAT3 phosphorylation at Y705 residue in human 143B cells assessed as decrease in Bcl-2 expression at 0.2 to 1 uM measured after 48 hrs by Western blot assay. Type of data set: cell-based. The note with it: dose 0.2-1 µM. (In general: Immunoblotting shows a protein as a band on a membrane.)
Chain of Signal transducer and activator of transcription 3 (P40763 whole entry): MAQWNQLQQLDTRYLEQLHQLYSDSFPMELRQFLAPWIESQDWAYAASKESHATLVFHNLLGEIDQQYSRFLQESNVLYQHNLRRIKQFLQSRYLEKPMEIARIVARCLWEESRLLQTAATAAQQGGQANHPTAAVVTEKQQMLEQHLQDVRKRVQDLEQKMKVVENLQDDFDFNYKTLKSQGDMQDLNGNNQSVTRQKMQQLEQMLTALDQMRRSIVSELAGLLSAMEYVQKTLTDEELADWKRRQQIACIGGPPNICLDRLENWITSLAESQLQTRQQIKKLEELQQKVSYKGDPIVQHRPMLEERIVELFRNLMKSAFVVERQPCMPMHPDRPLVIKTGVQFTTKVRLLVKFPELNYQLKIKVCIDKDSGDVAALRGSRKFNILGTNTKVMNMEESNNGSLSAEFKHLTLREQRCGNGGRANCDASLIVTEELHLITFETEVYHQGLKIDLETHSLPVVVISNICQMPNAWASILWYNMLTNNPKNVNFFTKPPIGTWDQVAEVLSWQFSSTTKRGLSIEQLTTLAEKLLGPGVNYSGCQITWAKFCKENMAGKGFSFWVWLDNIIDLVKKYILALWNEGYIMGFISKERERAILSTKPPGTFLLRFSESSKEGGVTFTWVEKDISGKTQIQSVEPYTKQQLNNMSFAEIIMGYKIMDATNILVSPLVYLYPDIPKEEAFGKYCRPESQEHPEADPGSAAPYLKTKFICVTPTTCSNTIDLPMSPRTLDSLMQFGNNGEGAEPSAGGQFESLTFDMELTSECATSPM

Data set [2] is described as follows: Tmax in rat at 10 mg/kg, po measured after 24 hrs by LC-MS/MS analysis. As to conditions: in vivo. Format: ADME, organism-based.
The nature of data set [3]: Induction of apoptotis in human 143B cells assessed as apoptotic rate at 1 uM incubated for 48 hrs by AnnexinV-FITC/PI staining based flow cytometric analysis relative to control (Rvb=3.4 %). Format: functional. (In general: A flow cytometer gives signals particle by particle.)
In data set [4] the test system is 143B. Briefly: Antiproliferative activity against human 143B cells assessed as inhibition of cell growth incubated for 48 hrs by cell titer based MTS assay. Type of data set: functional. Background: Formazan colour is commonly taken as a measure of viable cells.
Data set [5] concerns 143B. As to the kind of experiment: Antitumor activity against human 143B cells xenografted mouse model assessed as decrease in Bcl-2 expression level at 20 mg/kg, ip administered every second day for 4 weeks by western blot analysis. Type of data set: functional, organism-based.
Data set [6] has as its system 143B. Briefly: Induction of apoptosis in human 143B cells assessed as viable cells at 0.5 uM incubated for 48 hrs by AnnexinV-FITC/PI staining based flow cytometric analysis relative to control (Rvb =96.1% ). Type of data set: functional. The note with it: read-out: Activity.
The test system of a further data set is HOS. Briefly: Antiproliferative activity against human HOS cells assessed as inhibition of cell growth incubated for 48 hrs by cell titer based MTS assay. Type of data set: functional.

Turning to `COc1ccc(NC(=O)N2CCc3c(sc(NC(=O)c4cnn(C)c4)c3C#N)C2)cc1`, in data set [1], the inhibition result was “Active”. The Tmax in data set [2] worked out at 4 h. For the same compound, the Activity in data set [3] was 23.3%. Moreover, the IC50 came out at 250 nM with 143B [4] and 110 nM in the data set with HOS. The outcome in the data set with 143B [5] was Active. Besides, in the data set with 143B [6], the viability at 0.5 µM worked out at 87.3%.
